Where two headings read alike, the source gives them in different places.

Data set [1] is described as follows: Comparison of D- and L-amino acids for forming hydrogels with PVA. The settings on record: 1 ml of 8% PVA; for Gel formation, D: D-amino acid; for Gel formation, L: L-amino acid. Details: key: {square root} = Gel formation when amino acid was dissolved in water; + = Gel formation when amino acid was dissolved in 1 M NaHCO3; − = No gel formation regardless of solvent for amino acid; *= HCl derivative of amino acid. Type of data set: physicochemical. On the procedure: In these experiments, the ability of D-amino acids to gel PVA was compared directly to the gelling observed using L-amino acids. The concentrations of amino acids used were the same for both the L- and D-forms. All D- and L-amino acids were obtained from Aldrich. Typically, 100 mg of amino acid was dissolved in the minimum amount of water or 1M NaHCO3 (200-600 microliter) necessary to dissolve it. […] For each amino acid/PVA combination, 1 ml of 8% PVA was used (80 mg PVA) and the amount of amino acid was varied. 100 mg of each of amino acids was added unless listed below, with the following exceptions: L-Gln 20 mg; D-Ile 50 mg; L-Phe 20 mg and 40 mg; L-Pro 50 mg and 100 mg; L-Ser 30 mg and 100 mg; L-Thr 30 mg; D-Trp 10 mg and 30 mg; L-Trp 8 mg; L-Tyr 10 mg; D-Tyr 10 mg; L-Val 30 mg.

The conditions of data set [2]: for amount necessary to cause precipitation of 1 ml 8% PVA: 1.8 mmol of available OH groups. Here is the method:
Succinic acid, ethylene diamine, and glycine were each dissolved in water at a typical ratio of 100 mg in 1 ml water.
Aliquots of 100 microliter of each solution were added to PVA to reach final concentrations of either ˜0.5 mmol (low concentration) or ˜1 mmol (high concentration) per 1 ml 8% PVA solution (1.8 mmol of available OH groups in PVA).

As for `C[C@@H](N)C(=O)O` [D-Ala], in data set [1], the “Gel formation, D” value is listed as “−”.
On the same count and under the same terms, the value for `Cl.NC(N)=NCCC[C@@H](N)C(=O)O` [D-Arg] was “−*”; that for `NC(=O)C[C@@H](N)C(=O)O` [D-Asn] was “−”; that for `N[C@H](CC(=O)O)C(=O)O` [D-Asp] was “−”.
On the same count and under the same terms, the value for `NC(=O)CC[C@@H](N)C(=O)O` [D-Gln] was “−”; that for `N[C@H](CCC(=O)O)C(=O)O` [D-Glu] was “−”; that for `N[C@H](Cc1c[nH]cn1)C(=O)O` [D-His] was “−”.
`CC[C@@H](C)[C@@H](N)C(=O)O` [D-Ile]: in data set [1], the “Gel formation, D” value was “+”.
On the same count and under the same terms, the value for `CC(C)C[C@@H](N)C(=O)O` [D-Leu] was “+”.
On the same count and under the same terms, with `NCCCC[C@@H](N)C(=O)O` [D-Lys] the entry was “{square root}”.
Same read-out and setting: with `CSCC[C@@H](N)C(=O)O` [D-Met] the entry was “+”.
Consider `CCCC[C@@H](N)C(=O)O` [D-Nle], for which the “Gel formation, D” value in data set [1] is given as “+”.
On the same count and under the same terms, with `N[C@H](Cc1ccccc1)C(=O)O` [D-Phe] the entry was “+”; with `O=C(O)[C@H]1CCCN1` [D-Pro], “{square root}”; with `N[C@H](CO)C(=O)O` [D-Ser], “{square root}”.
On the same count and under the same terms, the value for `C[C@H](O)[C@@H](N)C(=O)O` [D-Thr] was “+”; that for `N[C@H](Cc1c[nH]c2ccccc12)C(=O)O` [D-Trp] was “+”; that for `N[C@H](Cc1ccc(O)cc1)C(=O)O` [D-Tyr] was “+”.
The same measure, in the same setting: with `CC(C)[C@@H](N)C(=O)O` [D-Val] the entry was “+”.
For the molecule `NCCN` [Ethylene Diamine, ethylene diamine], the Gel formation result in data set [2] (pH 4) is recorded as “−”; in data set [2] (pH 7), “−”; in data set [2] (pH 10), “++”; in data set [2] (pH 13.1), “+++”. For the same molecule, the gelling over time result in data set [2] (pH 4.4) is given as “no gelling over time”; in data set [2] (pH 7.2), “no additional gelling”; in data set [2] (pH 10.0, first 24 hours), “additional gelling”; in data set [2] (pH 12.7, first 24 hours), “additional gelling”. The initial gelling result in data set [2] (pH 4.4) is recorded as “no immediate gelling”; in data set [2] (pH 7.2), “little immediate gelling”; in data set [2] (pH 10.0) it was “immediate gelling”; in data set [2] (pH 12.7) it was “immediate gelling”.
Consider `NCC(=O)O` [Glycine, glycine], for which, in data set [2] (gel formed at pH 7, cured for 1 hour in its solution before placing in water), the “dissolution of gel in water” value is “did not dissolve”. Besides, the Gel formation entry is “−” in data set [2] (pH 4), “+++” in data set [2] (pH 7) and “++” in data set [2] (pH 10). Further, the initial gelling entry in data set [2] (pH 4) is “little gel formation”; in data set [2] (pH 7), “substantial gelling”; in data set [2] (pH 9.9), “much gelling”. For the same molecule, the gelling over time result in data set [2] (pH 4, within the first 24 hours) is on record as “additional gel formation”; in data set [2] (pH 7), “More gelling”; in data set [2] (pH 9.9, within 24 hours), “Considerable additional gelling”. In addition, the “gelling at higher concentration” value in data set [2] (pH 7) was “immediate gel formation”. Moreover, the “amount necessary to cause precipitation of 1 ml 8% PVA” value in data set [2] (pH 7) was 2.6 mmol. In data set [1], the “Gel formation, L” value is listed as “{square root}”.
Take `C[C@H](N)C(=O)O` [L-Ala]: in data set [1], the “Gel formation, L” value was “+”.
On the same count and under the same terms, the value for `N=C(N)NCCC[C@H](N)C(=O)O` [L-Arg] was “{square root}”; that for `NC(=O)C[C@H](N)C(=O)O` [L-Asn] was “+”.
In the case of `N[C@@H](CC(=O)O)C(=O)O` [L-Asp], the “Gel formation, L” value in data set [1] was “−”.
The same measure, in the same setting: the value for `N[C@@H](CS)C(=O)O` [L-Cys] was “+”.
Same read-out and setting: with `NC(=O)CC[C@H](N)C(=O)O` [L-Gln] the entry was “+”; with `N[C@@H](CCC(=O)O)C(=O)O` [L-Glu], “−”.
Still for that read-out and setting: the value for `N[C@@H](Cc1c[nH]cn1)C(=O)O` [L-His] was “{square root}”; that for `O=C(O)[C@@H]1C[C@@H](O)CN1` [L-Hyp] was “−”.
Consider `CC[C@H](C)[C@H](N)C(=O)O` [L-Ile], for which the “Gel formation, L” value in data set [1] is “−”.
Still for that read-out and setting: the value for `CC(C)C[C@H](N)C(=O)O` [L-Leu] was “−”.
The same measure, in the same setting: the value for `NCCCC[C@H](N)C(=O)O` [L-Lys] was “{square root}”; that for `CSCC[C@H](N)C(=O)O` [L-Met] was “−”; that for `N[C@@H](Cc1ccccc1)C(=O)O` [L-Phe] was “+”.
On the same count and under the same terms, with `O=C(O)[C@@H]1CCCN1` [L-Pro] the entry was “{square root}”.
Consider `N[C@@H](CO)C(=O)O` [L-Ser], for which the “Gel formation, L” value in data set [1] is recorded as “+”.
Still for that read-out and setting: with `C[C@@H](O)[C@H](N)C(=O)O` [L-Thr] the entry was “+”; with `N[C@@H](Cc1c[nH]c2ccccc12)C(=O)O` [L-Trp], “{square root}”; with `N[C@@H](Cc1ccc(O)cc1)C(=O)O` [L-Tyr], “+”.
Same read-out and setting: with `CC(C)[C@H](N)C(=O)O` [L-Val] the entry was “+”.
On to `O=C(O)CCC(=O)O` [Succinic Acid, succinic acid], for which the “dissolution of gel in water or in 1M HCl” value in data set [2] (gel formed at pH 7.0, higher concentration) is “did not dissolve”; in data set [2] (gel formed at pH 9.7, higher concentration), “did not dissolve”. Also, the Gel formation result is reported as “−” in data set [2] (pH 2.1), “−” in data set [2] (pH 4), “+++” in data set [2] (pH 7) and “+++” in data set [2] (pH 10). The gelling over time result was “No additional gelling” in data set [2] (pH 2.1), “A little more gelling” in data set [2] (pH 7.0) and “Additional gelling” in data set [2] (pH 9.7). Moreover, the initial gelling result in data set [2] (pH 2.1) was “very slight gelling”; in data set [2] (pH 7.0, small amounts added) it was “some initial gelling”; in data set [2] (pH 9.7, small amounts added) it was “some initial gelling”. For the same molecule, the “gelling at higher concentration” value in data set [2] (pH 7.0) and in data set [2] (pH 9.7) was “PVA precipitates out immediately” in each case. Also, the “amount necessary to cause precipitation of 1 ml 8% PVA” value in data set [2] (pH 7) is recorded as 0.85 mmol; in data set [2] (pH 10) it was 0.73 mmol.

For the origin of these results see patent publication US20050276857A1, “Hydrogels formed by non-covalent linkages” (University of Washington, priority 2002, published 2005).
